BigSolDB 2.1

CC(S)C(=O)NCC(=O)O (stereo not given)
solubility (mole fraction)
Details	273.15 K	278.15 K	283.15 K	288.15 K	293.15 K	298.15 K	303.15 K	308.15 K	313.15 K	318.15 K
in acetonitrile	0.00946	0.0105	0.0115	0.0126	0.0138	0.0151	0.0165	0.018	0.0196	0.0212
in isobutanol	0.0119	0.0141	0.0166	0.0191	0.0217	0.0247	0.0281	0.0321	0.0365	0.0413
in n-butanol	0.0251	0.0311	0.0379	0.0451	0.0529	0.0614	0.0709	0.0811	0.0918	0.103
in toluene	0.00033	0.00037	0.00041	0.00045	0.0005	0.00056	0.00062	0.00069	0.00077	0.00087
